This is an account of results in patent publication US20150232876A1, “Use of a Receptor Kinase Having LysM Motifs in Order to Improve the Response of Plants to Lipochitooligosaccharides” (INSTITUT NATIONAL DE LA RECHERCHE AGRONOMIQUE, priority 2012, published 2015).

One experiment concerns the target LYR3 (Medicago truncatula, UniProt G7KAT5). The experiment in a line: Saturation and competitive binding on LYR3-YFP expressed in N. benthamiana leaf membrane fractions. To be noted: LYR3-YFP in N. benthamiana leaf membranes; competition with 0.9 nM LCO-IV(35S, C16:2Δ2,9); read-out: Affinity (nM) for LYR3 (Ki). The source says:
Genes LYR3, LYK9 and LYR6 were inserted into a binary vector, fused in C-terminal with a fluorescent protein (Yellow Fluorescent Protein: YFP) and introduced into Nicotiana benthamiana leaves using agroinfiltration by Agrobacterium tumefaciens. Meanwhile, NFP and LYK3 genes which encode putative receptors […] Nod factors were inserted into the same vectors and expressed in the same conditions.
3 days after agro-infiltration, leaves of N. benthamiana expressing the different constructs were harvested and ground in liquid nitrogen. Membrane fractions were prepared from the ground material, using the same protocol as that described above for the preparation of microsomal fractions, except that 0.6% (w/v) of polyvinyl-polypyrrolidone were added to extraction buffer. After centrifugation at 3000×g, the supernatant was collected and centrifuged at 45000×g. The resulting (membrane fraction) pellet was resuspended in binding buffer, and stored at −80° C. in the presence of 10% or 50% glycerol, until use.
Membrane proteins were separated by 10% polyacrylamide gel electrophoresis in SDS, and transferred onto nitrocellulose membrane, and detection of recombinant proteins made using anti-GFP antibody. Meanwhile, the properties of specific binding to LCOs were assessed by equilibrium binding, as described in Example 1, using 0.8 to 2.4 nM of LCO-IV (^35S, C16:2Δ2, 9) +/−2 μM of unlabeled LCO-IV (S, C16: 2Δ2, 9), and 25 micrograms to 80 micrograms of membrane protein, depending of the expression level of the protein labeled with YFP.
To further characterize the binding properties of the protein LYR3, saturation binding experiments using LCO-IV (^35S, C16:2Δ2, 9) and competitive binding experiments in the presence of different COs or LCOs were performed.

Another experiment addresses PpLYR3 (Prunus persica, UniProt A0A251NBL6). The experiment in a line: Equilibrium, saturation and competition binding on PpLYR3 expressed in N. benthamiana leaves. The note with it: PpLYR3, competition. The method, then: In non-legumes, PpLYR3, SILYR3 and AtLysM-RLK4 genes have been cloned, the corresponding proteins were expressed in N. benthamiana leaves, and their ability to bind to LCOs was determined by binding experiments at equilibrium, as described above for legumes LYR3 proteins.
The interaction of PpLYR3 with the Nod LCO-IV (^35S, C16:2Δ2, 9) factor has been characterized in more detail by means of saturation and competition experiments. The results obtained are illustrated in FIG. 9. […] Similarly, PpLYR3 specifically recognizes the LCOs as interaction with COs (CO-IV and CO-VIII) is of low affinity (Ki>5 μM).

The subject of experiment [1] is 100 kDa polypeptide (MtNFBS2). The experiment in a line: Photolabeling of the 100 kDa polypeptide in membrane fractions, with excess competitors. The format is binding, Medicago truncatula. To be noted: 2 μM competitor, 5 nM azido ligand, dmi3 membrane fraction. The source says: To assess the molecular mass of the affine protein of Nod factors responsible for binding properties of MtNFBS2, a photolabeling with Nod factors analogs containing a photoactivatable group, which after irradiation in a given wavelength reactive species which can form a covalent bond with the surrounding molecules, has been taken. […] homologues of these molecules have been synthesized and labeled with ^35S to enable detection of the stable complex ligand/binding protein.
For photolabeling, 5 nM of radioactive and photoactivatable ligand, alone or in the presence of an excess (2 μM) different competitors were incubated in binding buffer, in the same conditions as described in Example 1 above for the binding experiments at equilibrium, with 300 micrograms of membrane protein fraction obtained from cultured cells of wild-type Medicago truncatula (A 17), or the dmi3 mutant of Medicago truncatula. After 1 hour of incubation, the samples were irradiated for 5 min at 254 nm or 10 min at 365 nm with a fluorescent tube at a distance of 4 cm. The free ligand was removed by centrifugation, and the membrane pellet was washed two times in binding buffer.
The membrane pellet proteins were separated by polyacrylamide gel electrophoresis in 10% SDS, and transferred onto nitrocellulose membrane, and detection was carried out by autoradiography.

In the next experiment the target is PsLYR3 (Lathyrus oleraceus, UniProt A0A9D5BD18). The experiment in a line: Equilibrium, saturation and competitive binding on MtLYR3 ortholog expressed in N. benthamiana leaves. To be noted: PsLYR3; for Ki: read-out: Affinity (Ki). Also noted: species or system Pisum sativum. From the text: (§1) In legumes, MtLYR3 orthologs have been identified in P. sativum, P. vulgaris and L. japonicus. In G. max orthologs exist in duplicate due to a duplication of the genome. The corresponding genes have been cloned and sequenced. A few differences in sequence compared with sequences in the databases were found which could be explained by the use of different varieties of plants or by sequencing errors in databases. The cloned genes were introduced into binary vectors, in C-terminal fusion with the fluorescent protein YFP, and introduced into Nicotiana benthamiana leaves using agroinfiltration by Agrobacterium tumefaciens, as described above in Example 3. The membrane fractions were isolated, their protein content was analyzed by electrophoresis under denaturing conditions, followed by immunodetection using anti-GFP antibody as described in Example 3, and their ability to interact with LCOs was determined by equilibrium binding, as described in Example 1, in the presence of 1 nM LCO-IV (S^35, C16:2Δ2, 9). The value of specific binding is determined by the value of difference between the total binding and the nonspecific binding obtained for incubation in the presence of an excess (2 μM) of unlabeled ligand. For comparison, the ability to interact of LjNFR5 and LjNFR1 receptors, identified in L. japonicus to play a role in nodulation by a genetic approach (MADSEN et al, Nature, 425, 637-40, 2003. RADUTOIU et al., Nature, 425, 585-92, 2003a) and respective orthologs of LYK3 and NFP in M. truncatula was determined under the same conditions.
Chain of PsLYR3 (A0A9D5BD18 entry or part of it): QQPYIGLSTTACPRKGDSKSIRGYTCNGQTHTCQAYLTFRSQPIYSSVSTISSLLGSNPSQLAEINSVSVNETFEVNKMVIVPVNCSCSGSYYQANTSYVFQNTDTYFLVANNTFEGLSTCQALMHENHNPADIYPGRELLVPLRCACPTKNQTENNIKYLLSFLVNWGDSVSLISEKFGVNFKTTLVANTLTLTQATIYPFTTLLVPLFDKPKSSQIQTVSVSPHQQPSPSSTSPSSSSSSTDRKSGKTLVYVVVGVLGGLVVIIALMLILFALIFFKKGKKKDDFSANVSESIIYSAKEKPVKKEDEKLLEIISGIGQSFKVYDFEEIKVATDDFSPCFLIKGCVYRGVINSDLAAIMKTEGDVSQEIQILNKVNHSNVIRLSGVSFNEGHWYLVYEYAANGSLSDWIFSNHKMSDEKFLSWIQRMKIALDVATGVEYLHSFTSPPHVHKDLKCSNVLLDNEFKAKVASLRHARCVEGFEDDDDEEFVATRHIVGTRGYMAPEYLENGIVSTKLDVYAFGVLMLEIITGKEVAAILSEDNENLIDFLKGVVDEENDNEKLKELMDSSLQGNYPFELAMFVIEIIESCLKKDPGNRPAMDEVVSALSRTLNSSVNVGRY
(§2) To further characterize the binding properties of MtLYR3 orthologs to LCOs, saturation and competitive binding experiments in the presence of different COs or LCOs were performed.

The next experiment concerns the target LjLYS12 (Lotus japonicus, UniProt D3KTZ9). Described as above. To be noted: LjLYS12; for Ki: read-out: Affinity (Ki).
Source text: as §1, §2

A further experiment addresses GmLYR3-1 (Glycine max, UniProt A5YJW2). Described as above. The note with it: GmLYR3-1; for Ki: read-out: Affinity (Ki).
Source text: as §1, §2

For a further experiment, the target named is PvLYR3 (Phaseolus vulgaris, UniProt V7CFC1). The description is as above. To be noted: PvLYR3; for Ki: read-out: Affinity (Ki).
Chain of PvLYR3 (V7CFC1 entry or part of it): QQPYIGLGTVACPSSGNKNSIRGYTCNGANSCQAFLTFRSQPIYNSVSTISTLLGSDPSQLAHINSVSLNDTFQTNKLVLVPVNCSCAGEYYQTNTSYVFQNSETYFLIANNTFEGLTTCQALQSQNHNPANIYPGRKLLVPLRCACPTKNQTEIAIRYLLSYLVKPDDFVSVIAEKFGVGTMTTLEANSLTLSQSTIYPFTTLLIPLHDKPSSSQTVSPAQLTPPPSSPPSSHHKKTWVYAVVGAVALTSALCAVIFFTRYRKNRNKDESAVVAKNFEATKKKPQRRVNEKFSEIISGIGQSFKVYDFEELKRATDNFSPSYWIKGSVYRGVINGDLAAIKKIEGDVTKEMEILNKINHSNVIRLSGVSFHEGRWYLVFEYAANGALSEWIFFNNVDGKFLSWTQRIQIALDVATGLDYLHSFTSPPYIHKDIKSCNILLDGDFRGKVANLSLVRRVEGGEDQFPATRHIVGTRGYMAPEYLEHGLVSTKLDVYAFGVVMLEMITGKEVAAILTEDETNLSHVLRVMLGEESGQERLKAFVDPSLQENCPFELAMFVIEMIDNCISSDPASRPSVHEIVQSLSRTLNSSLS
Source text: as §1, §2

Another experiment concerns the target GmLYR3-11 (Glycine max, UniProt I1LHL9). Described as above. To be noted: GmLYR3-11; for Ki: read-out: Affinity (Ki).
Source text: as §1, §2

Chain of LYR3 (G7KAT5 entry or part of it): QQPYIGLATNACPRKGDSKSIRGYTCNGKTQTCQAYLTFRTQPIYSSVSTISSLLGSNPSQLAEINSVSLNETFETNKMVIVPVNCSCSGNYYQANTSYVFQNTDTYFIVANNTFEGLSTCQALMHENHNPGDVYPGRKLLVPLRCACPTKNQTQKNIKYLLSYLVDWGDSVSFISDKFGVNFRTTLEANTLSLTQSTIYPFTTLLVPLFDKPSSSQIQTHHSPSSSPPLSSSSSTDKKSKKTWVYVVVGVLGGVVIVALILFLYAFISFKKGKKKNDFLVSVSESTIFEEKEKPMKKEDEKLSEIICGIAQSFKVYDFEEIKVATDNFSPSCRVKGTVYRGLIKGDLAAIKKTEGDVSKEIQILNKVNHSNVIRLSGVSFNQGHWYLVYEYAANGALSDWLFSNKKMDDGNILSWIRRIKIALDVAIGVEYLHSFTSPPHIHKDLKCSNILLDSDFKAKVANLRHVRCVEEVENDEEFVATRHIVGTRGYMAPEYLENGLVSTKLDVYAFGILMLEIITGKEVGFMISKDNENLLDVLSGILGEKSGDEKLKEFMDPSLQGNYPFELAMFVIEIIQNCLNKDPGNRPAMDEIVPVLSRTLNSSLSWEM
Chain of GmLYR3-1 (A5YJW2 entry or part of it): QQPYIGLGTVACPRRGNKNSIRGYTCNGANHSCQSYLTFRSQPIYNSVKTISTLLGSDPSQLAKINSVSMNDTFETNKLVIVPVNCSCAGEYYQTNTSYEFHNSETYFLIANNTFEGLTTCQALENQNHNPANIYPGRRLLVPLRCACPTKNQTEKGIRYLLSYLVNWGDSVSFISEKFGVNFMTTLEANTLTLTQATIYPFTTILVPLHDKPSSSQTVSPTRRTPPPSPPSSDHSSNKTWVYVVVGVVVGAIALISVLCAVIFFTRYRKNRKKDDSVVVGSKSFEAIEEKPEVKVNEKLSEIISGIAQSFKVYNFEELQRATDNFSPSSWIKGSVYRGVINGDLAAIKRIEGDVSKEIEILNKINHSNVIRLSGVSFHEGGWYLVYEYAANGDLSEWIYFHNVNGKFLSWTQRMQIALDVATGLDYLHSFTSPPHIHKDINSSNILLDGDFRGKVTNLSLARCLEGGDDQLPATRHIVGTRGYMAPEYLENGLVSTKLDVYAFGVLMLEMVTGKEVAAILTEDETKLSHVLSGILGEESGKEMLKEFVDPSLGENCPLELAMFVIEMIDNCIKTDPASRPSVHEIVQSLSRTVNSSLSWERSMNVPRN
Chain of GmLYR3-11 (I1LHL9 entry or part of it): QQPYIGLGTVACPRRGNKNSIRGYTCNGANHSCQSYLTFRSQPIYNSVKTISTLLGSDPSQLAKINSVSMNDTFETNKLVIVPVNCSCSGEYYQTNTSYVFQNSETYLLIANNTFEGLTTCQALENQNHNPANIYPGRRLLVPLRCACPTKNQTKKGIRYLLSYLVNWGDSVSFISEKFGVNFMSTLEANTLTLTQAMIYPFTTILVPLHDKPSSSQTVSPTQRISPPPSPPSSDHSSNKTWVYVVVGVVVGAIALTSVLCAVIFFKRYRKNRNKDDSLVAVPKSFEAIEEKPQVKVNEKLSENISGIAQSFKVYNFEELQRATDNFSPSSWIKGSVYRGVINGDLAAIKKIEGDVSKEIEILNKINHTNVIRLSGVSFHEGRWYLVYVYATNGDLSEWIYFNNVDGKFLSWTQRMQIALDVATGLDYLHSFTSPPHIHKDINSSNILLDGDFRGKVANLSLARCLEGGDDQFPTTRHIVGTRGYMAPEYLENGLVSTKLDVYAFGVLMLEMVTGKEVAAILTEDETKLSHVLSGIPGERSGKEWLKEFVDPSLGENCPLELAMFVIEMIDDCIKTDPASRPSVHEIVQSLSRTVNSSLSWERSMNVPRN
Chain of LjLYS12 (D3KTZ9 entry or part of it): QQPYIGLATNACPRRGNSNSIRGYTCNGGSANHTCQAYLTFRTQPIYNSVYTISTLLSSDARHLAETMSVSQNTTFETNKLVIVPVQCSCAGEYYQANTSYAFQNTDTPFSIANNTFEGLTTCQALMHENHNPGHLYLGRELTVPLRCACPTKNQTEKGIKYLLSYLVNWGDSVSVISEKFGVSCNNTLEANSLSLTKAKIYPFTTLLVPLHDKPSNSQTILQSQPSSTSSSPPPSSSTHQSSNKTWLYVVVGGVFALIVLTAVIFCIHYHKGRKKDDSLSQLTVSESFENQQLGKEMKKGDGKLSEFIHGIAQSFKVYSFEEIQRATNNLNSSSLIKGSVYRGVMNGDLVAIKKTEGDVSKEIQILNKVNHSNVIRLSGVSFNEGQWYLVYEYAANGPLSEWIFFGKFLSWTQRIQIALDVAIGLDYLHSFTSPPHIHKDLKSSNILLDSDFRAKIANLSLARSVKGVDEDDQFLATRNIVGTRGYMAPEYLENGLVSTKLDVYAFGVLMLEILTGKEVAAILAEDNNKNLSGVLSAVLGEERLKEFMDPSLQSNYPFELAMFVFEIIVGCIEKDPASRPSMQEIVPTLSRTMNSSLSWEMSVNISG
Chain of PpLYR3 (A0A251NBL6 entry or part of it): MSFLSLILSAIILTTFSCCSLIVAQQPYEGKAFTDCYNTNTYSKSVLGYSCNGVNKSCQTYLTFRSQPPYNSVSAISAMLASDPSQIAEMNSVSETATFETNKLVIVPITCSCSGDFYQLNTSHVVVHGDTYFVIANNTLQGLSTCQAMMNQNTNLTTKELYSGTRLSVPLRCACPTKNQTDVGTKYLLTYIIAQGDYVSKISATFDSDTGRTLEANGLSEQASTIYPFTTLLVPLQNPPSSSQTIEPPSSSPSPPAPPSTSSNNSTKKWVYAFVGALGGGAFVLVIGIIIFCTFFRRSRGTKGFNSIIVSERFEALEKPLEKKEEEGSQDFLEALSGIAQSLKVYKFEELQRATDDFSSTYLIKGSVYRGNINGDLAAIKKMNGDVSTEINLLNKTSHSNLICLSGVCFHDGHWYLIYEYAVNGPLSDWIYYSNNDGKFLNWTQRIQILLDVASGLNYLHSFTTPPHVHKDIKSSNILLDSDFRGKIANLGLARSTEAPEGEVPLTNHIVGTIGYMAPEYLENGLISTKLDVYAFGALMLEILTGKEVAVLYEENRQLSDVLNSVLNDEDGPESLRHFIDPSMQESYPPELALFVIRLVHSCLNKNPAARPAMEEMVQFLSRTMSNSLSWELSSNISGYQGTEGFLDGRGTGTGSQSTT

On to `CC(=O)N[C@H]1[C@H](O[C@H]2[C@H](O)[C@@H](NC(C)=O)C(O)O[C@@H]2CO)O[C@H](CO)[C@@H](O[C@@H]2O[C@H](CO)[C@@H](O[C@@H]3O[C@H](CO)[C@@H](O)[C@H](O)[C@H]3NC(C)=O)[C@H](O)[C@H]2NC(C)=O)[C@@H]1O` (stereo partly drawn) [CO-IV, chitotetraose], for which the inhibition constant Ki at LYR3 and at PpLYR3 was more than 5000 nM each time. Also, the “binding of the radiolabeled photoactivatable ligand to the 100 kDa polypeptide in presence of excess competitor” value (“binding” for short) in experiment [1] was “not”.

In the case of `CC(=O)N[C@H]1[C@H](O[C@H]2[C@H](O)[C@@H](NC(C)=O)[C@H](O[C@H]3[C@H](O)[C@@H](NC(C)=O)C(O)O[C@@H]3CO)O[C@@H]2CO)O[C@H](CO)[C@@H](O[C@@H]2O[C@H](CO)[C@@H](O[C@@H]3O[C@H](CO)[C@@H](O)[C@H](O)[C@H]3NC(C)=O)[C@H](O)[C@H]2NC(C)=O)[C@@H]1O` (stereo partly drawn) [CO-V], the Ki on PsLYR3 was more than 10000 nM; on LjLYS12 it was more than 10000 nM; at GmLYR3-1, more than 10000 nM; on PvLYR3, more than 10000 nM; at GmLYR3-11 it was more than 10000 nM; on LYR3, 12000 nM.

As to `CCCCCCCCCCCCCCCC(=O)N[C@H]1[C@H](O[C@H]2[C@H](O)[C@@H](NC(C)=O)[C@H](O[C@H]3[C@H](O)[C@@H](NC(C)=O)[C@H](O[C@H]4[C@H](O)[C@@H](NC(C)=O)C(O)O[C@@H]4CO)O[C@@H]3CO)O[C@@H]2CO)O[C@H](CO)[C@@H](O)[C@@H]1O` (stereo partly drawn) [LCO-IV(C16:0)], the inhibition constant Ki is 50 nM on PsLYR3; 42 nM at LjLYS12; 70 nM on GmLYR3-1; 23 nM on PvLYR3; 140 nM on GmLYR3-11; 15 nM at LYR3.

Regarding `CCCCCCCC/C=C\CCCCCCCC(=O)N[C@H]1[C@H](O[C@H]2[C@H](O)[C@@H](NC(C)=O)[C@H](O[C@H]3[C@H](O)[C@@H](NC(C)=O)[C@H](O[C@H]4[C@H](O)[C@@H](NC(C)=O)C(O)O[C@@H]4CO)O[C@@H]3CO)O[C@@H]2CO)O[C@H](CO)[C@@H](O)[C@@H]1O` (stereo partly drawn) [LCO-IV(C18:1Δ9)], the Ki on LYR3 is 22 nM. Also, the “binding” value in experiment [1] was “inhibited”.

As to `CCCCCCCCCCCCCCCC(=O)N[C@H]1[C@H](O[C@H]2[C@H](O)[C@@H](NC(C)=O)[C@H](O[C@H]3[C@H](O)[C@@H](NC(C)=O)[C@H](O[C@H]4[C@H](O)[C@@H](NC(C)=O)C(O)O[C@@H]4COS(=O)(=O)O)O[C@@H]3CO)O[C@@H]2CO)O[C@H](CO)[C@@H](O)[C@@H]1O` (stereo partly drawn) [LCO-IV(S, C16:0)], the Ki was 24 nM on PsLYR3; 11 nM at LjLYS12; 18 nM on GmLYR3-1; 17 nM on PvLYR3; 32 nM at GmLYR3-11; 26 nM on LYR3.

Regarding `CCCCCC/C=C\CCCCC/C=C/C(=O)N[C@H]1[C@H](O[C@H]2[C@H](O)[C@@H](NC(C)=O)[C@H](O[C@H]3[C@H](O)[C@@H](NC(C)=O)[C@H](O[C@H]4[C@H](O)[C@@H](NC(C)=O)C(O)O[C@@H]4COS(=O)(=O)O)O[C@@H]3CO)O[C@@H]2CO)O[C@H](CO)[C@@H](O)[C@@H]1O` (stereo partly drawn) [LCO-IV(S, C16:2Δ2, 9)], the dissociation constant Kd at PsLYR3 (read-out: Affinity (Kd)) turned out to be 31 nM; at LjLYS12 (read-out: Affinity (Kd)), 33 nM; at GmLYR3-1 (read-out: Affinity (Kd)), 32 nM; on PvLYR3 (read-out: Affinity (Kd)), 40 nM; on GmLYR3-11 (read-out: Affinity (Kd)) it was 64 nM. Further, the “binding” value in experiment [1] is on record as “completely abolished”.

`CCCCCCCC/C=C\CCCCCCCC(=O)N[C@H]1[C@H](O[C@H]2[C@H](O)[C@@H](NC(C)=O)[C@H](O[C@H]3[C@H](O)[C@@H](NC(C)=O)[C@H](O[C@H]4[C@H](O)[C@@H](NC(C)=O)C(O)O[C@@H]4COS(=O)(=O)O)O[C@@H]3CO)O[C@@H]2CO)O[C@H](CO)[C@@H](O)[C@@H]1O` (stereo partly drawn) [LCO-IV(S, C18:1Δ9)]: the inhibition constant Ki was found to be 16 nM on PsLYR3; 7 nM at LjLYS12; 12 nM at GmLYR3-1; 13 nM on PvLYR3; 19 nM on GmLYR3-11; 13.5 nM at LYR3. For the same compound, the “binding” value in experiment [1] was “inhibited”.
